# Assay results reported in patent US20250154611A1, “SYSTEMS AND METHODS TO DETECT STEM CELL STRESS AND USES THEREOF” (Wayne State University, priority 2014, published 2025).
# Legend:
# p38MAPK = p38MAPK (Mus musculus, UniProt P47811); assay: phospho-p38 western blot in mESCs under 200 mM sorbitol; type: cell-based; conditions: 200 mM, persisted throughout 1 hr
# Method: (§1) FIG. 14. […] Blots are representative of triplicate experiments. Phospho-proteins and their loading controls are grouped between black lines.
# (§2) FIG. 15. […] Blots are representative of triplicate experiments.
# (§3) Hyperosmotic activation of signaling enzymes. […] Zhong, 2010; Xie, 2011. […] To determine the kinetics of activation of these five kinases in the described system, mESCs were treated with 200 mM sorbitol for 1 hr. Expression levels of the activated (i.e., phosphorylated) enzymes were assayed by western blot analysis (FIG. 14), including phospho-p38MAPK, phospho-JNK, phospho-MEK1/2, and phospho-AKT (the downstream effector of PI3K signaling).
# (§4) Efficacy of enzyme inhibitors.
# Rex1-RFP mESCs = assay: Flow cytometry of Rex1-RFP reporter mESCs (bright, intermediate, dim subpopulations); type: cell-based, mouse; conditions: 3 days; for Bright subpopulation / Dim subpopulation / Intermediate + Dim / Intermediate subpopulation: LIF+
# Method: . Rex1-RFP mESCs expressing Rex1 promoter reporter were cultured in 12-well plates until 30% confluent, treated with 0 mM, 200 mM, and 300 mM sorbitol for 3 days, trypsinized, and cell suspensions were assayed by flow cytometry. Arbitrary thresholds (vertical red lines) were drawn at 5×10^3 on the X-axis between the middle of the two peaks and at 2 standard deviations above the mean of the parental (before infection) dim population shown in the bottom panel. Areas in parental dim, intermediate dim, and bright were defined by the 2 vertical red lines and were quantified as pixels using Image J from data in (FIG. 25A) to give histograms in (FIG. 25B).
# FIGS. 26A and 26B. Viable Rex1 promoter reporter responds with stress treatment in a dose-dependent manner in flow cytometry assay. mESCs expressing Rex1 promoter reporter were cultured in 12-well plates till 30% confluence. Cells were then treated with 200-300 mM of sorbitol in 25 mM increments for 3 days. After trypsinization, the cell suspensions were subjected for flow cytometry assay. An arbitrary threshold was drawn at 5×10^3 on the x-axis and another near the low point between the bright peak and the dimmer peak to its left (FIG. 26A). […] Intermediate and bright groups were also defined by the two vertical red lines. Area sizes of the two peaks were quantified using Image J. The histogram bars (FIG. 26B) are derived by three independent experiments, one of which is shown in (FIG. 26A), errors bars showing s.e.m., One-way ANOVA was performed followed by Dunnett's post hoc test using 0 mM as reference for parental dim, intermediate dim, and bright separately.
# Flow cytometric analysis of mESCs expressing pluripotency reporters. Fluorescence determination by the plate reader reported an averaged biochemical result from a population of cells inside the tissue culture vessel. […] This time point was designated as time zero. The cells were then treated with different sorbitol concentrations for 1-3 days. At each time point, cells were trypsinized and re-suspended in ice-cold D-PBS for flow cytometry assay using an LSR Fortessa flow cytometer (BD biosciences) and the FACS Diva Software version 7.0 (BD biosciences). Non-stressed mESCs that express Oct4-copGFP and/or Rex1-mApple and the non-modified, parental mESCs were used to set up the parameters that define the fluorescent cells and non-fluorescent cells.
# From the histogram of FACS, two peaks are seen. The right peak represents the bright fluorescent potent ESCs. The left peak represents the dim fluorescent non-potent ESCs. An arbitrary vertical line is drawn here at the 5×10^3 position on the PE-A axis to separate the low potency ESCs. The peak areas were calculated using Image J by counting the area pixels.
# JNK = assay: phospho-JNK western blot in mESCs under 200 mM sorbitol; type: cell-based, mouse; conditions: persisted throughout 1 hr
# Method: as §1, §2, §3, §4
# Sequence of p38MAPK (P47811 whole entry): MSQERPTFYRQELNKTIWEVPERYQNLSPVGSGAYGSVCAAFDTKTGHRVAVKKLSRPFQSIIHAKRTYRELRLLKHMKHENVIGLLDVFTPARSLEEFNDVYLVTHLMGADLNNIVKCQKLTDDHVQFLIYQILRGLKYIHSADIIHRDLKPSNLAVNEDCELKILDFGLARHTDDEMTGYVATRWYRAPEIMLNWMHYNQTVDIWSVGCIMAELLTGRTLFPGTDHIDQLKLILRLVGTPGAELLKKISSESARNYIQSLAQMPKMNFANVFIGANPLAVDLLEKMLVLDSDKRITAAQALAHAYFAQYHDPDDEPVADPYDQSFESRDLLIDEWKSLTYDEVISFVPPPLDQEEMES
smiles,measurement,setting,value
OC[C@@H](O)[C@@H](O)[C@H](O)[C@@H](O)CO [sorbitol],time at which activated p38MAPK was first detected,p38MAPK,10 min
same,decrease in high activity Rex1 subpopulation,Rex1-RFP mESCs; 0 to 300 mM,20%
same,decrease in the bright group,Rex1-RFP mESCs; 0 to 300 mM,21.5%
same,increase in parental dim ESCs,Rex1-RFP mESCs; 0 to 300 mM,15.8%
same,increase in the low Rex1 activity subpopulation,Rex1-RFP mESCs; 0 to 300 mM,2.8 fold
same,total change toward intensity decrease,Rex1-RFP mESCs; 0 to 300 mM,40.4 % of cells
same,Bright subpopulation,Rex1-RFP mESCs; 200 mM,77.1%
same,Dim subpopulation,Rex1-RFP mESCs; 200 mM,12.2%
same,Intermediate + Dim,Rex1-RFP mESCs; 200 mM,22.9%
same,Intermediate subpopulation,Rex1-RFP mESCs; 200 mM,10.7%
same,Bright subpopulation,Rex1-RFP mESCs; 225 mM,75.6%
same,Dim subpopulation,Rex1-RFP mESCs; 225 mM,13.7%
same,Intermediate + Dim,Rex1-RFP mESCs; 225 mM,24.4%
same,Intermediate subpopulation,Rex1-RFP mESCs; 225 mM,10.7%
same,Bright subpopulation,Rex1-RFP mESCs; 250 mM,72%
same,Dim subpopulation,Rex1-RFP mESCs; 250 mM,16.6%
same,Intermediate + Dim,Rex1-RFP mESCs; 250 mM,28%
same,Intermediate subpopulation,Rex1-RFP mESCs; 250 mM,11.4%
same,Bright subpopulation,Rex1-RFP mESCs; 275 mM,71.9%
same,Dim subpopulation,Rex1-RFP mESCs; 275 mM,17.1%
same,Intermediate + Dim,Rex1-RFP mESCs; 275 mM,28.1%
same,Intermediate subpopulation,Rex1-RFP mESCs; 275 mM,11%
same,Bright subpopulation,Rex1-RFP mESCs; 300 mM,61.8+/−3.7%
same,Dim subpopulation,Rex1-RFP mESCs; 300 mM,24.4+/−2.9%
same,Intermediate + Dim,Rex1-RFP mESCs; 300 mM,28.1%
same,Intermediate subpopulation,Rex1-RFP mESCs; 300 mM,13.8+/−2.1%
same,Bright subpopulation,"Rex1-RFP mESCs; 300 mM, listed as Sorbitol",61.8%
same,Dim subpopulation,"Rex1-RFP mESCs; 300 mM, listed as Sorbitol",24.4%
same,Intermediate subpopulation,"Rex1-RFP mESCs; 300 mM, listed as Sorbitol",13.8%
same,increase in intermediate dim ESCs,Rex1-RFP mESCs; to 300 mM,3.1%
same,time at which activated JNK was first detected,JNK,20 min
